According to patent publication US8481522B2, “Platinum-N-heterocyclic carbene derivatives, preparation thereof and therapeutic use thereof” (Sanofi, priority 2008, dated 2013):
“And” between values parts separate entries of the source, which are not always exact repeats. Equal values may be shown once.

Legend:
CCRF-CEM cells = test: Cytotoxicity, non-adherent CCRF-CEM cells, CellTiter-Glo luminescent cell viability; format: cell-based; details: CCRF-CEM human T leukaemia, 96 h incubation
Method: CCRF-CEM is a human T leukaemia (Cancer 1965, 18: 522-529). Oxaliplatin induces bifunctional lesions such as inter- and intra-DNA strand adducts on these CCRF-CEM cells (Mol Pharmacol 2000, 58: 920-927). […] This deficiency makes these cells particularly […] to alkylating agents and to platinum compounds.
For the non-adherent CCRF-CEM cells, the cell viability is measured by the luminescence test CellTiter-Glo® Luminescent Cell Viability Assay (Promega, Madison, Wis., USA). When it is added to the cells, the reagent produces a luminescence in the presence of the ATP of the living cells. The results are evaluated on a suitable reader (Envision, Perkin-Elmer Life Sciences, Boston, Mass., USA).
The CCRF-CEM cells are cultured in RPMI1640 medium containing 10% foetal calf serum, 2 mM L-glutamine, 100 units/ml of penicillin and […] of streptomycin, at 37° C. in a 95% air/5% CO2 atmosphere. The cells, at the exponential growth phase, are introduced into the wells of a 96-well plate at the density of 5×10^3 cells per well in an opaque plate (Greiner), in a volume of 150 μl. After incubating for 4 h at 37° C. in a 95% air/5% CO2 atmosphere, the compounds (concentrated 20-fold) are added in a volume of 8 μl. The compounds are prepared beforehand as a stock solution at the concentration of 10 mM in DMSO. A serial dilution is performed before the compounds are brought into contact with the cells. After incubating for 96 h at 37° C., 100 μl of agents (CellTiter-Glo) are added. After lysing the cells, the release of ATP is evaluated on the Envision reader.
(§1) The IC50 values are evaluated from curves presenting the percentage viability as a function of the concentration of the test compound, using the Biostat speed software. The IC50 is defined as the concentration of the compound which inhibits 50% of the cell proliferation or 50% of the cell viability.

H460 = test: Cytotoxicity, adherent cells, 14C-thymidine incorporation (cell proliferation); format: cell-based; details: NCI-H460 human non-small cell lung cancer, 96 h treatment
Method: NCI-H460 is a human non-small cell lung cancer which has a mutation in the K-ras gene. This cell is sensitive to platinum compounds. In this cell line, cisplatin forms more adducts than oxaliplatin at the same concentration and yet the percentage repair is higher for oxaliplatin (DNA Repair 2006, 5: 219-225).
Cell proliferation is evaluated by the incorporation of ^14C-thymidine into the DNA of the cells. A549, CH1, CH1/DDP and H460 are cultured in Dulbecco's modified Eagle's medium (DMEM), SK-OV-3 in Mc-Coy medium, A2780 and A2780/DDP in RPMI1640 medium. All the media contain 10% foetal calf serum, 2 mM L-glutamine, 100 units/ml of penicillin and […] of streptomycin. The incubation is performed at 37° C. in a 95% air/5% CO2 atmosphere.
The cells, at the exponential growth phase, are introduced into the wells of a Cytostar 96-well plate, containing a scintillation fluid (Cytostar-T scintillating microplate, GE Healthcare Bio-Sciences AB, Uppsala, Sweden), at the density of 5×10^3 to 10^4 cells per well, in an amount of 180 μl per well. After incubating for 4 hours, the test compounds are added. The compounds are prepared beforehand as a stock solution at the concentration of 10 mM in DMSO. A serial dilution is performed before the compounds are brought into contact with the cells in a volume of 10 μl. After incubating for 72 hours at 37° C. in an atmosphere of 95% air/5% CO2, 0.1 μCi/well of ^14C-thymidine is added. 24 h later (total 96 h of treatment), the incorporation of ^14C-thymidine is recorded on a suitable scintillation counter (MicroBeta radioactivity counting, Perkin-Elmer Life Sciences, Boston, Mass., USA). The mean values obtained in the experimental groups are divided by the mean values obtained in the control groups in order to obtain percentages relative to the controls.
as §1

| Compound | IC50 (CCRF-CEM cells) | IC50 (H460) |
| --- | --- | --- |
| Cn1ccn(C)[c]1=[Pt-]([I])([I])[NH2+]C1CC2CCC1C2 (racemic) [Example 6, trans-diiodo(N-exo(+/−)bicyclo[2.2.1]heptylamine)(1,3-dimethyl-imidazol-2-ylidene)platinum(II)] | 1700 nM | 2800 nM |
| Cn1c(=O)c2c(n(C)c1=O)n(C)[c](=[Pt]([I])([I])[NH]C1CC3CCC1C3)n2C (racemic) [Example 25, trans-diiodo(N-exo(+/−)bicyclo[2.2.1]heptylamine) (1,3,7,9-tetramethylxanthin-8-ylidene)platinum(II)] | 1000 nM | 1500 nM |
| Cn1ccn(C)[c]1=[Pt-]([I])([I])[NH2+]C1CC2CCC1C2 (single isomer, unassigned) [Example 23, trans-diiodo(N-exo(+)bicyclo[2.2.1]heptylamine)(1,3-dimethylimidazol-2-ylidene)platinum(II)] | 1600 nM | 2300 nM |
| Cn1ccn(C)[c]1=[Pt-]([I])([I])[NH2+]C1CC2CCC1C2 (single isomer, unassigned) [Example 24, trans-diiodo(N-exo(−)bicyclo[2.2.1]heptylamine)(1,3-dimethylimidazol-2-ylidene)platinum(II)] | 900 nM | 2100 nM |
| Cn1ccn(C)[c]1=[Pt-]([I])([I])[NH2+]C1CCCCC1 [Example 1, trans-diiodo(N-cyclohexylamine)(1,3-dimethylimidazol-2-ylidene)platinum(II)] | 2800 nM and 1900 nM | 5400 nM and 3000 nM |
| Cn1cnn(C)[c]1=[Pt]([I])([I])[NH]C1CCCCC1 [Example 2, trans-diiodo(N-cyclohexylamine)(1,4-dimethyl-1,2,4-triazol-5-ylidene)platinum(II)] | 1500 nM | 2500 nM |
| Cn1ccn(-c2ccccc2)[c]1=[Pt-]([I])([I])[NH2+]C1CCCCC1 [Example 4, trans-diiodo(N-cyclohexylamine)(1-methyl-3-phenylimidazol-2-ylidene)platinum(II)] | 1500 nM | 2300 nM |
| Cn1[c](=[Pt]([I])([I])[NH]C2CCCCC2)n(C)c2ccccc21 [Example 8, trans-diiodo(N-cyclohexylamine)(1,3-dimethylbenzimidazol-2-ylidene)platinum(II)] | 3100 nM | 1900 nM |
| Cn1ccn(C)[c]1=[Pt-]([I])([I])[NH2+]Cc1ccccc1 [Example 13, trans-diiodo(N-benzylamine)(1,3-dimethylimidazol-2-ylidene)-platinum(II)] | 1700 nM | 3000 nM |
| Cn1ccn(C)[c]1=[Pt-]([I])([I])[NH2+]Cc1ccc(C(F)(F)F)cc1 [Example 14, trans-diiodo[N-4-(trifluoromethyl)benzylamine](1,3-dimethylimidazol-2-ylidene)platinum(II)] | 1700 nM | 2600 nM |
| C=Cn1ccn(C)[c]1=[Pt-]([I])([I])[NH2+]C1CCCCC1 [Example 15, trans-diiodo(N-cyclohexylamine)[1-methyl-3-vinylimidazol-2-ylidene]platinum(II)] | 2100 nM | 3800 nM |
| [I][Pt-]([I])([NH2+]C1CCCCC1)=[c]1n(C2CCCCC2)ccn1C1CCCCC1 [Example 18, trans-diiodo(N-cyclohexylamine)(1,3-dicyclohexylimidazol-2-ylidene)platinum(II)] | 1400 nM | 2700 nM |
| Cn1c(-c2ccccc2)c[n+](C)[c]1[Pt-2]([I])([I])[NH2+]C1CCCCC1 [Example 20, trans-diiodo(N-cyclohexylamine)[1,3-dimethyl-4-phenylimidazol-2-ylidene]platinum(II)] | 2100 nM | 4400 nM |
| Cn1c(-c2ccccc2)c(-c2ccccc2)n(C)[c]1=[Pt]([I])([I])[NH]C1CCCCC1 [Example 22, trans-diiodo(N-cyclohexylamine)[1,3-dimethyl-4,5-diphenylimidazol-2-ylidene]platinum(II)] | 1200 nM | 1800 nM |
| C[n+]1c(-c2ccccc2)c(-c2ccccc2)n(Cc2ccccc2)[c]1[Pt-2]([I])([I])[NH2+]C1CCCCC1 [Example 26, trans-diiodo(N-cyclohexylamine)[3-benzyl-4,5-diphenyl-1-methyl-imidazol-2-ylidene]platinum (II)] | 1200 nM | 2900 nM |
| CN1CCC([NH2+][Pt-]([I])([I])=[c]2n(C)ccn2Cc2ccccc2)CC1 [Example 27, trans-diiodo[N-(1-methylpiperidin-4-ylamine)](1-methyl-3-benzyl-imidazol-2-ylidene)platinum(II)] | 1600 nM | 1700 nM |
| CCC(CC)[NH2+][Pt-]([I])([I])=[c]1n(C)ccn1Cc1ccccc1 [Example 28, trans-diiodo(N-pentan-3-ylamine)(1-methyl-3-benzylimidazol-2-ylidene)platinum(II)] | 1400 nM | 1600 nM |
| Cn1ccn(Cc2ccccc2)[c]1=[Pt-]([I])([I])[NH2+]C1CCOCC1 [Example 29, trans-diiodo(N-4-aminotetrahydropyran)(1-methyl-3-benzylimidazol-2-ylidene)platinum(II)] | 500 nM | 900 nM |
| Cn1ccn(Cc2ccccc2)[c]1=[Pt-]([I])([I])[NH2+]C1CCCC1 [Example 30, trans-diiodo(N-cyclopentylamine)(1-methyl-3-benzylimidazol-2-ylidene)platinum(II)] | 1100 nM | 1300 nM |
| Cn1ccn(Cc2ccccc2)[c]1=[Pt-]([I])([I])[NH+]1CCOCC1 [Example 31, trans-diiodo(N-morpholine)(1-methyl-3-benzylimidazol-2-ylidene)-platinum(II)] | 700 nM | 900 nM |
| COc1cccc(Cn2cc[n+](C)[c]2[Pt-2]([I])([I])[NH2+]C2CCCCC2)c1 [Example 32, trans-diiodo(N-cyclohexylamine)[3-(3-methoxybenzyl)-1-methyl-imidazol-2-ylidene]platinum(II)] | 1200 nM | 1400 nM |
| C[n+]1ccn(Cc2cccc(C(F)(F)F)c2)[c]1[Pt-2]([I])([I])[NH2+]C1CCCCC1 [Example 33, trans-diiodo(N-cyclohexylamine)[1-methyl-3-(3-trifluoromethylbenzyl)imidazol-2-ylidene]platinum(II)] | 700 nM | 800 nM |
| Cn1ccn(Cc2ccc(C(F)(F)F)cc2)[c]1=[Pt-]([NH2+]C1CCCCC1)([O][N+](=O)[O-])[O][N+](=O)[O-] [Example 34, trans-dinitrato(N-cyclohexylamine)[1-methyl-3-(4-trifluoromethyl-benzyl)imidazol-2-ylidene]platinum(II)] | 1400 nM | 3100 nM |
| COc1ccc(Cn2cc[n+](C)[c]2[Pt-2]([I])([I])[NH2+]C2CCCCC2)cc1OC [Example 35, trans-diiodo(N-cyclohexylamine)[3-(3,4-dimethoxybenzyl)-1-methylimidazol-2-ylidene]platinum(II)] | 1300 nM | 2700 nM |
| Cn1ccn(Cc2ccc(C(F)(F)F)cc2)[c]1=[Pt-]([I])([I])[NH+]1CCOCC1 [Example 36, trans-diiodo(N-morpholine)(1-methyl-3-(4-trifluoromethylbenzyl)-imidazol-2-ylidene)platinum(II)] | 600 nM | 900 nM |
| Cn1cc[n+](Cc2ccc(C(F)(F)F)cc2)[c]1[Pt-2]([I])([I])[NH2+]C1CCOCC1 [Example 37, trans-diiodo(N-tetrahydropyran-4-ylamine)(1-methyl-3-(4-trifluoro-methylbenzyl)imidazol-2-ylidene)platinum(II)] | 900 nM | 1400 nM |
